According to patent EP4741383A1, “COMPOUND AND USE THEREOF AS ANTI-CANCER DRUG” (Tyligand Bioscience (Shanghai) Limited, priority 2023, dated 2025):

Legend:
4T1 = test: CellTiter-Glo cell proliferation inhibition, 4T1; assay type: cell-based; conditions: 4T1 (mouse breast cancer cell line), 72 hours; read-out: Example IC50 (µM) 4T1
Text: (§1) This experiment used the CellTiter-Glo® Luminescent Cell Viability Assay kit from Promega to evaluate the inhibitory activity of the disclosed compounds on the proliferation of the following cell lines: 4T1 (mouse breast cancer cell line), A20 (mouse B-cell lymphoma cell line), A2780 (human ovarian cancer cell line), AsPC-1 (pancreatic cancer cell line), B16F10 (mouse melanoma cell line), BT549 (human breast cancer cell line), CT26 (mouse colon cancer cell line), EMT6 (mouse breast cancer cell line), HCT116 (colorectal cancer cell line), Jurket (acute leukemia cell line), KP-4 (pancreatic cancer cell line), LL/2 (mouse lung cancer cell line), MCF7 (breast cancer cell line), […] NCI-H358 (lung cancer cell line), NCI-H727 (gastric cancer cell line), NCI-1944 (lung cancer cell line), Pan 04.03 (pancreatic cancer cell line), SK-BR-3 (breast cancer cell line), THP-1 (leukemia cell line), TOV21G (ovarian cancer cell line), U87MG (glioblastoma cell line), and UM-UC-a (bladder cancer cell line). […]
(§2) Cells were cultured according to the instructions provided by the cell supplier (Nanjing Kebai Biotechnology Co., Ltd.). […] Suspension or adherent cells were collected, and cell viability was determined using the trypan blue exclusion method, ensuring that cell viability was above 90%. […]

AsPC-1 = test: CellTiter-Glo cell proliferation inhibition, AsPC-1; assay type: cell-based; conditions: Homo sapiens, ASPC1; AsPC-1 (pancreatic cancer cell line), 72 hours; read-out: Example IC50 (µM) AsPC-1
Text: as §1, §2

B16F10 = test: CellTiter-Glo cell proliferation inhibition, B16F10; assay type: cell-based; conditions: B16-F10; B16F10 (mouse melanoma cell line), 72 hours; read-out: Example IC50 (µM) B16F10
Text: as §1, §2

BT549 = test: CellTiter-Glo cell proliferation inhibition, BT549; assay type: cell-based; conditions: BT-549; BT549 (human breast cancer cell line), 72 hours; read-out: Example IC50 (µM) BT549
Text: as §1, §2

CT26 = test: CellTiter-Glo cell proliferation inhibition, CT26; assay type: cell-based; conditions: CT26 (mouse colon cancer cell line), 72 hours; read-out: Example IC50 (µM) CT26
Text: as §1, §2

Jurket = test: CellTiter-Glo cell proliferation inhibition, Jurket; assay type: cell-based; conditions: Jurket (acute leukemia cell line), 72 hours; read-out: Example IC50 (µM) Jurket
Text: as §1, §2

LL/2 = test: CellTiter-Glo cell proliferation inhibition, LL/2; assay type: cell-based; conditions: LL/2 (mouse lung cancer cell line), 72 hours; read-out: Example IC50 (µM) LL/2
Text: as §1, §2

MCF7 = test: CellTiter-Glo cell proliferation inhibition, MCF7; assay type: cell-based; conditions: Homo sapiens; MCF7 (breast cancer cell line), 72 hours; read-out: Example IC50 (µM) MCF7
Text: as §1, §2

NCI-H727 = test: CellTiter-Glo cell proliferation inhibition, NCI-H727; assay type: cell-based; conditions: Homo sapiens; […]; read-out: Example IC50 (µM) NCI-H727
Text: as §1, §2

NCI-1944 = test: CellTiter-Glo cell proliferation inhibition, NCI-1944; assay type: cell-based; conditions: NCI-1944 (lung cancer cell line), 72 hours; read-out: Example IC50 (µM) NCI-1944
Text: as §1, §2

TOV21G = test: CellTiter-Glo cell proliferation inhibition, TOV21G; assay type: cell-based; conditions: Homo sapiens; TOV21G (ovarian cancer cell line), 72 hours; read-out: Example IC50 (µM) TOV21G
Text: as §1, §2

U87MG = test: CellTiter-Glo cell proliferation inhibition, U87MG; assay type: cell-based; conditions: Homo sapiens, U-87 MG; U87MG (glioblastoma cell line), 72 hours; read-out: Example IC50 (µM) U87MG
Text: as §1, §2

UM-UC-a = test: CellTiter-Glo cell proliferation inhibition, UM-UC-a; assay type: cell-based; conditions: UM-UC-a (bladder cancer cell line), 72 hours; read-out: Example IC50 (µM) UM-UC-a
Text: as §1, §2

[1] = J. Med. Chem. 2014, 57, 6594-6609; read-out: cellular activity IC50; cited from earlier work
[2] = J. Med. Chem. 2014, 57, 6594-6609; cited from earlier work

| IC50 (4T1) [µM] | IC50 (AsPC-1) [µM] | IC50 (B16F10) [µM] | IC50 (BT549) [µM] | IC50 (CT26) [µM] | IC50 (MCF7) [µM] | IC50 (NCI-H727) [µM] | IC50 (U87MG) [µM] | SMILES | IC50 (Jurket) [µM] | IC50 (LL/2) [µM] | IC50 (NCI-1944) [µM] | IC50 (TOV21G) [µM] | IC50 (UM-UC-a) [µM] | IC50 [1] [nM] | oral bioavailability [2] [%] |
| --- | --- | --- | --- | --- | --- | --- | --- | --- | --- | --- | --- | --- | --- | --- | --- |
| 0.125 | 0.121 | 0.142 | 0.121 | 0.123 | 0.083 | 0.225 | 0.276 | O=C(Nc1ccc(-c2csc(CO)c2)cc1)C(=O)Nc1ccc(-c2cc3cc(F)c(-c4nnn[nH]4)cc3n2C2CCC2)cc1 [Example 1] | 0.165 | 0.207 | 0.112 | 0.112 | 0.193 |  |  |
|  |  |  |  |  |  |  |  | Cn1c(-c2cccc(NC(=O)C(=O)Nc3ccc(-c4ccsc4)cc3)c2)c(I)c2cc(C(=O)O)c(O)cc21 [Example 11a-1, reference compound] |  |  |  |  |  | ≥ 1000 | 0.07 |
| 0.14 |  |  | 0.047 | 0.134 | 0.05 |  | 0.075 | O=C(Nc1ccc(-c2cc3cc(F)c(-c4nnn[nH]4)cc3n2C2CCC2)cc1)C(=O)Nc1ccc(N2CCC3(CCC(O)C3)CC2)cc1 (stereo not drawn) [Example 100] |  |  |  | 0.106 |  |  |  |
